Data as given in patent US20090246519A1 (priority 2008, published 2009).

Legend:
Strains in all clusters = format: cell-based
Cluster 3 strain 14B = format: cell-based, Virgibacillus halodenitrificans
[1] = test system: Cluster 1 strains 1A, 13B, 30B; format: cell-based, Rhodotorula mucilaginosa; conditions: highest level of tellurite tolerated by strains when grown on LB-Marine plates
[2] = test system: Cluster 2 strains 28A, 6A; format: cell-based, Bacillus sp.; conditions: highest level of tellurite tolerated by strains when grown on LB-Marine plates

Molecule | Resistance of strains to oxyanion (Strains in all clusters) | Growth of strain 14B in the presence of tellurite (Cluster 3 strain 14B; 150 μg Na2TeO3 ml^−1, on plates and in liquid cultures) | Maximum [TeO3^2−] (Cluster 3 strain 14B; highest level of tellurite tolerated by strains when grown on LB-Marine plates, cluster 3) [µg/mL] | Maximum [TeO3^2−] [1] [µg/mL] | Maximum [TeO3^2−] [2] [µg/mL]
O=[Se](=O)(O)O [selenate] | resistant |  |  |  | 
O=[Te](=O)(O)O [tellurate] | resistant |  |  |  | 
arsenate | resistant |  |  |  | 
sodium tellurite [TeO3^2−] |  | grows poorly | 75 to 150 | 600 | 300
